Laboratory results published in US12304890B2, “R-type pyridyloxycarboxylic acid, salt and ester derivative thereof, and preparation method therefor, and herbicidal composition and application thereof” (Qingdao Kingagroot Chemical Compound Co., Ltd., priority 2018, dated 2025).

Columns and labels:
Assay type in all cases: in vivo
Echinochloa crusgalli = test: Post-emergence test experiment, Echinochloa crusgalli; details: 1000 g a.i./ha, 3 weeks in greenhouse, fresh weight inhibition
In short: (§1)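 Greenhouse post-emergence spray at 2-3 leaf stage (2 wk after sowing); acetone/tween-80 formulation, methyl oleate EC synergist 1.5 L/ha, water-diluted. Plants held 3 wk, then fresh weight inhibition rate read.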

Digitaria sanguinalis = test: Post-emergence test experiment, Digitaria sanguinalis; details: 1000 g a.i./ha, 3 weeks in greenhouse, fresh weight inhibition
In short: as §1

[1] = test system: Monocotyledonous and dicotyledonous weed seeds and main crop seeds; test: Post-emergence test experiment, other weeds and crops (Table 4, 1000 g a.i./ha); details: 3 weeks in greenhouse, fresh weight inhibition
In short: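 Growth inhibition is scored on fresh weight. Spray solutions were made in acetone with tween-80, diluted in water, plus 1.5 L/ha methyl oleate emulsible concentrate. Plants from greenhouse-grown weed and crop seeds were treated post-emergence at 2-3 leaves, 2 weeks after sowing.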

## C[C@@H](Oc1nc(F)c(Cl)c(N)c1Cl)C(=O)OCc1cccc(C#N)c1 [Compound 2-335]
Echinochloa crusgalli
  Activity level (growth inhibition rate), Echinochloa crusgalli: 5 (Level 5: the growth inhibition rate is greater than 85%)
Digitaria sanguinalis
  Activity level (growth inhibition rate), Digitaria sanguinalis: 5 (Level 5: the growth inhibition rate is greater than 85%)
[1]
  Activity level (growth inhibition rate), Abutilon theophrasti Medic.: 5 (Level 5: the growth inhibition rate is greater than 85%)
  Activity level (growth inhibition rate), Galium aparine: 5 (Level 5: the growth inhibition rate is greater than 85%)
  Activity level (growth inhibition rate), Monochoria Vaginalis: 5 (Level 5: the growth inhibition rate is greater than 85%)

## C[C@@H](Oc1nc(F)c(Cl)c(N)c1Cl)C(=O)SCc1cccc(C#N)c1 [Compound 2-336]
Echinochloa crusgalli
  Activity level (growth inhibition rate), Echinochloa crusgalli: 5 (Level 5: the growth inhibition rate is greater than 85%)
Digitaria sanguinalis
  Activity level (growth inhibition rate), Digitaria sanguinalis: 5 (Level 5: the growth inhibition rate is greater than 85%)
[1]
  Activity level (growth inhibition rate), Abutilon theophrasti Medic.: 5 (Level 5: the growth inhibition rate is greater than 85%)
  Activity level (growth inhibition rate), Galium aparine: 5 (Level 5: the growth inhibition rate is greater than 85%)
  Activity level (growth inhibition rate), Monochoria Vaginalis: 5 (Level 5: the growth inhibition rate is greater than 85%)

## C[C@@H](Oc1nc(F)c(Cl)c(N)c1Cl)C(=O)OCc1ccc(C#N)cc1 [Compound 2-337]
Echinochloa crusgalli
  Activity level (growth inhibition rate), Echinochloa crusgalli: 5 (Level 5: the growth inhibition rate is greater than 85%)
Digitaria sanguinalis
  Activity level (growth inhibition rate), Digitaria sanguinalis: 5 (Level 5: the growth inhibition rate is greater than 85%)
[1]
  Activity level (growth inhibition rate), Abutilon theophrasti Medic.: 5 (Level 5: the growth inhibition rate is greater than 85%)
  Activity level (growth inhibition rate), Galium aparine: 5 (Level 5: the growth inhibition rate is greater than 85%)
  Activity level (growth inhibition rate), Monochoria Vaginalis: 5 (Level 5: the growth inhibition rate is greater than 85%)

## C[C@@H](Oc1nc(F)c(Cl)c(N)c1Cl)C(=O)SCc1ccc(C#N)cc1 [Compound 2-338]
Echinochloa crusgalli
  Activity level (growth inhibition rate), Echinochloa crusgalli: 5 (Level 5: the growth inhibition rate is greater than 85%)
Digitaria sanguinalis
  Activity level (growth inhibition rate), Digitaria sanguinalis: 5 (Level 5: the growth inhibition rate is greater than 85%)
[1]
  Activity level (growth inhibition rate), Abutilon theophrasti Medic.: 5 (Level 5: the growth inhibition rate is greater than 85%)
  Activity level (growth inhibition rate), Galium aparine: 5 (Level 5: the growth inhibition rate is greater than 85%)
  Activity level (growth inhibition rate), Monochoria Vaginalis: 5 (Level 5: the growth inhibition rate is greater than 85%)

## C[C@@H](Oc1nc(F)c(Cl)c(N)c1Cl)C(=O)Sc1ccc2ccccc2c1 [Compound 2-339]
Echinochloa crusgalli
  Activity level (growth inhibition rate), Echinochloa crusgalli: 5 (Level 5: the growth inhibition rate is greater than 85%)
Digitaria sanguinalis
  Activity level (growth inhibition rate), Digitaria sanguinalis: 5 (Level 5: the growth inhibition rate is greater than 85%)
[1]
  Activity level (growth inhibition rate), Abutilon theophrasti Medic.: 5 (Level 5: the growth inhibition rate is greater than 85%)
  Activity level (growth inhibition rate), Galium aparine: 5 (Level 5: the growth inhibition rate is greater than 85%)
  Activity level (growth inhibition rate), Monochoria Vaginalis: 5 (Level 5: the growth inhibition rate is greater than 85%)

## C[C@@H](Oc1nc(F)c(Cl)c(N)c1Cl)C(=O)OCc1ccc2ccccc2c1 [Compound 2-340]
Echinochloa crusgalli
  Activity level (growth inhibition rate), Echinochloa crusgalli: 5 (Level 5: the growth inhibition rate is greater than 85%)
Digitaria sanguinalis
  Activity level (growth inhibition rate), Digitaria sanguinalis: 5 (Level 5: the growth inhibition rate is greater than 85%)
[1]
  Activity level (growth inhibition rate), Abutilon theophrasti Medic.: 5 (Level 5: the growth inhibition rate is greater than 85%)
  Activity level (growth inhibition rate), Galium aparine: 5 (Level 5: the growth inhibition rate is greater than 85%)
  Activity level (growth inhibition rate), Monochoria Vaginalis: 5 (Level 5: the growth inhibition rate is greater than 85%)

## C[C@@H](Oc1nc(F)c(Cl)c(N)c1Cl)C(=O)OCc1cccc2ccccc12 [Compound 2-341]
Echinochloa crusgalli
  Activity level (growth inhibition rate), Echinochloa crusgalli: 5 (Level 5: the growth inhibition rate is greater than 85%)
Digitaria sanguinalis
  Activity level (growth inhibition rate), Digitaria sanguinalis: 5 (Level 5: the growth inhibition rate is greater than 85%)
[1]
  Activity level (growth inhibition rate), Abutilon theophrasti Medic.: 5 (Level 5: the growth inhibition rate is greater than 85%)
  Activity level (growth inhibition rate), Galium aparine: 5 (Level 5: the growth inhibition rate is greater than 85%)
  Activity level (growth inhibition rate), Monochoria Vaginalis: 5 (Level 5: the growth inhibition rate is greater than 85%)

## C[C@@H](Oc1nc(F)c(Cl)c(N)c1Cl)C(=O)OCc1ccccn1 [Compound 2-342]
Echinochloa crusgalli
  Activity level (growth inhibition rate), Echinochloa crusgalli: 5 (Level 5: the growth inhibition rate is greater than 85%)
Digitaria sanguinalis
  Activity level (growth inhibition rate), Digitaria sanguinalis: 5 (Level 5: the growth inhibition rate is greater than 85%)
[1]
  Activity level (growth inhibition rate), Abutilon theophrasti Medic.: 5 (Level 5: the growth inhibition rate is greater than 85%)
  Activity level (growth inhibition rate), Galium aparine: 5 (Level 5: the growth inhibition rate is greater than 85%)
  Activity level (growth inhibition rate), Monochoria Vaginalis: 5 (Level 5: the growth inhibition rate is greater than 85%)

## C[C@@H](Oc1nc(F)c(Cl)c(N)c1Cl)C(=O)OCc1ccncc1 [Compound 2-344]
Echinochloa crusgalli
  Activity level (growth inhibition rate), Echinochloa crusgalli: 5 (Level 5: the growth inhibition rate is greater than 85%)
Digitaria sanguinalis
  Activity level (growth inhibition rate), Digitaria sanguinalis: 5 (Level 5: the growth inhibition rate is greater than 85%)
[1]
  Activity level (growth inhibition rate), Abutilon theophrasti Medic.: 5 (Level 5: the growth inhibition rate is greater than 85%)
  Activity level (growth inhibition rate), Galium aparine: 5 (Level 5: the growth inhibition rate is greater than 85%)
  Activity level (growth inhibition rate), Monochoria Vaginalis: 5 (Level 5: the growth inhibition rate is greater than 85%)

## C[C@@H](Oc1nc(F)c(Cl)c(N)c1Cl)C(=O)SCc1ccncc1 [Compound 2-345]
Echinochloa crusgalli
  Activity level (growth inhibition rate), Echinochloa crusgalli: 5 (Level 5: the growth inhibition rate is greater than 85%)
Digitaria sanguinalis
  Activity level (growth inhibition rate), Digitaria sanguinalis: 5 (Level 5: the growth inhibition rate is greater than 85%)
[1]
  Activity level (growth inhibition rate), Abutilon theophrasti Medic.: 5 (Level 5: the growth inhibition rate is greater than 85%)
  Activity level (growth inhibition rate), Galium aparine: 5 (Level 5: the growth inhibition rate is greater than 85%)
  Activity level (growth inhibition rate), Monochoria Vaginalis: 5 (Level 5: the growth inhibition rate is greater than 85%)

## C[C@@H](Oc1nc(F)c(Cl)c(N)c1Cl)C(=O)OCc1cccnc1 [Compound 2-346]
Echinochloa crusgalli
  Activity level (growth inhibition rate), Echinochloa crusgalli: 5 (Level 5: the growth inhibition rate is greater than 85%)
Digitaria sanguinalis
  Activity level (growth inhibition rate), Digitaria sanguinalis: 5 (Level 5: the growth inhibition rate is greater than 85%)
[1]
  Activity level (growth inhibition rate), Abutilon theophrasti Medic.: 5 (Level 5: the growth inhibition rate is greater than 85%)
  Activity level (growth inhibition rate), Galium aparine: 5 (Level 5: the growth inhibition rate is greater than 85%)
  Activity level (growth inhibition rate), Monochoria Vaginalis: 5 (Level 5: the growth inhibition rate is greater than 85%)

## C[C@@H](Oc1nc(F)c(Cl)c(N)c1Cl)C(=O)SCc1cccnc1 [Compound 2-347]
Echinochloa crusgalli
  Activity level (growth inhibition rate), Echinochloa crusgalli: 5 (Level 5: the growth inhibition rate is greater than 85%)
Digitaria sanguinalis
  Activity level (growth inhibition rate), Digitaria sanguinalis: 5 (Level 5: the growth inhibition rate is greater than 85%)
[1]
  Activity level (growth inhibition rate), Abutilon theophrasti Medic.: 5 (Level 5: the growth inhibition rate is greater than 85%)
  Activity level (growth inhibition rate), Galium aparine: 5 (Level 5: the growth inhibition rate is greater than 85%)
  Activity level (growth inhibition rate), Monochoria Vaginalis: 5 (Level 5: the growth inhibition rate is greater than 85%)

## C[C@@H](Oc1nc(F)c(Cl)c(N)c1Cl)C(=O)OCc1ccoc1 [Compound 2-349]
Echinochloa crusgalli
  Activity level (growth inhibition rate), Echinochloa crusgalli: 5 (Level 5: the growth inhibition rate is greater than 85%)
Digitaria sanguinalis
  Activity level (growth inhibition rate), Digitaria sanguinalis: 5 (Level 5: the growth inhibition rate is greater than 85%)
[1]
  Activity level (growth inhibition rate), Abutilon theophrasti Medic.: 5 (Level 5: the growth inhibition rate is greater than 85%)
  Activity level (growth inhibition rate), Galium aparine: 5 (Level 5: the growth inhibition rate is greater than 85%)
  Activity level (growth inhibition rate), Monochoria Vaginalis: 5 (Level 5: the growth inhibition rate is greater than 85%)

## C[C@@H](Oc1nc(F)c(Cl)c(N)c1Cl)C(=O)OCc1cccs1 [Compound 2-350]
Echinochloa crusgalli
  Activity level (growth inhibition rate), Echinochloa crusgalli: 5 (Level 5: the growth inhibition rate is greater than 85%)
Digitaria sanguinalis
  Activity level (growth inhibition rate), Digitaria sanguinalis: 5 (Level 5: the growth inhibition rate is greater than 85%)
[1]
  Activity level (growth inhibition rate), Abutilon theophrasti Medic.: 5 (Level 5: the growth inhibition rate is greater than 85%)
  Activity level (growth inhibition rate), Galium aparine: 5 (Level 5: the growth inhibition rate is greater than 85%)
  Activity level (growth inhibition rate), Monochoria Vaginalis: 5 (Level 5: the growth inhibition rate is greater than 85%)

## C[C@@H](Oc1nc(F)c(Cl)c(N)c1Cl)C(=O)OCc1ccsc1 [Compound 2-351]
Echinochloa crusgalli
  Activity level (growth inhibition rate), Echinochloa crusgalli: 5 (Level 5: the growth inhibition rate is greater than 85%)
Digitaria sanguinalis
  Activity level (growth inhibition rate), Digitaria sanguinalis: 5 (Level 5: the growth inhibition rate is greater than 85%)
[1]
  Activity level (growth inhibition rate), Abutilon theophrasti Medic.: 5 (Level 5: the growth inhibition rate is greater than 85%)
  Activity level (growth inhibition rate), Galium aparine: 5 (Level 5: the growth inhibition rate is greater than 85%)
  Activity level (growth inhibition rate), Monochoria Vaginalis: 5 (Level 5: the growth inhibition rate is greater than 85%)

## Cc1cc(OC(=O)[C@@H](C)Oc2nc(F)c(Cl)c(N)c2Cl)n(C)n1 [Compound 2-352]
Echinochloa crusgalli
  Activity level (growth inhibition rate), Echinochloa crusgalli: 5 (Level 5: the growth inhibition rate is greater than 85%)
Digitaria sanguinalis
  Activity level (growth inhibition rate), Digitaria sanguinalis: 5 (Level 5: the growth inhibition rate is greater than 85%)
[1]
  Activity level (growth inhibition rate), Abutilon theophrasti Medic.: 5 (Level 5: the growth inhibition rate is greater than 85%)
  Activity level (growth inhibition rate), Galium aparine: 5 (Level 5: the growth inhibition rate is greater than 85%)
  Activity level (growth inhibition rate), Monochoria Vaginalis: 5 (Level 5: the growth inhibition rate is greater than 85%)
